Values of other authors in patent US10280177B2 (ALFASIGMA S.P.A., priority 2006, dated 2019).

Details: in vivo

## CO[C@H]1/C=C/O[C@@]2(C)Oc3c(C)c(O)c4c(O)c(c5c(nc6cc(C)ccn65)c4c3C2=O)NC(=O)/C(C)=C\C=C\[C@H](C)[C@H](O)[C@@H](C)[C@@H](O)[C@@H](C)[C@H](OC(C)=O)[C@@H]1C [polymorph ?, rifaximin]
  reduction of bioavailability compared to the form δ: twenty
